Drawing on patent US20250368627A1, “PYRAZOLESULFONAMIDES AS ANTITUMOR AGENTS” (Peloton Therapeutics, Inc., a fully owned subsidiary of …, priority 2019, published 2025), this text covers IC50 and EC50 for 27 compounds.

Assay [1] has as its target T1, DDB1DB/DCAF15 and RBM39 R1R2 complex (Homo sapiens, UniProt Q14498+Q66K64).
T1 construct: Amino acids 150 to 331 of RBM39 were cloned into pGEX4T3; GST (from vector pGEX4T3); TEV cleavage site (N); made in house; host or cells: DDB1DB/His-DCAF15: baculovirus/Sf9 co-expression; RBM39 R1R2: E. coli (pGEX4T3)
As to the kind of experiment: DCAF15 RBM39 Complex Formation Assay (FRET). The assay is classed as binding. The settings on record: FRET ratio Em 665/Em 615, incubated overnight at 4° C. From the text:
LANCE Eu-W1024 Anti-6×His and SureLight Allophycocyanin-anti-FLAG antibodies were purchased from Perkin Elmer. Human DDB1DB and His-tagged DCAF15 were co-expressed in baculovirus/sf9 system. While full length DDB1 contains three 7-bladed propellers termed A, B, and C, DDB1DB has only propeller A (amino acids 1 to 395) and C (amino acids 709-1140). The His-tagged DCAF15 contains six histidine residues directly preceding the DCAF15 sequence without any linker. An RBM39 fragment containing RRM1 and RRM2 was expressed in E. coli. Amino acids 150 to 331 of RBM39 were cloned into pGEX4T3 with an N-terminal TEV cleavage site and a C-terminal FLAG tag.
A compound of the present disclosure in DMSO (2 μL) was transferred to a 384-well assay plate. Compound was added in 14 points, 3-fold serial dilution (1 μM to 0.6 pico molar) in DMSO. […] FRET assay buffer (25 mM HEPES, pH 7.5, 100 mM NaCl, […], 0.5 mM TCEP, 0.005% Tween-20, 0.2 nM Eu—W1024 Anti-6×His, 50 nM SureLight Allophycocyanin-anti-FLAG, 20 nM DDB1DB/DCAF15, 50 nM RBM39 R1R2) was added and the resulting solution was incubated overnight at 4° C. The plate was placed in a plate reader (Spark 10) with excitation at 1=340 nm and emissions monitored at 1=665 nm and 1=615 nm, and the FRET ratio (Em 665/Em 615) was determined. Low signal controls containing no compound and high signal controls containing 10 mM indisulam were measured for each plate.
EC50 values were calculated using Dotmatics template equation for 4-parameter fit. Results are expressed as % formation using the following equation: […]

The subject of assay [2] is HCT116 human colorectal carcinoma cells. Nature of the assay: CellTiter-Glo Luminescent Cell Viability Assay. The settings on record: HCT-116, 72 h, 3 days. In kind it is cell-based. As to the method:
HCT116 human colorectal carcinoma cells were used in these experiments. HCT116 cells were obtained from ATCC. CellTiter-Glo® Luminescent Cell Viability Assay Reagent was obtained from Promega.
About 3,000 cells were seeded into 96-well plate with […] of media (DMEM supplemented with 10% FBS, 100 units penicillin, and […] streptomycin per mL) the day before the experiment. For compound treatment, the master plate was prepared as follows: 100× compound stocks were prepared in a 96-well plate by 1 to 3 serial dilutions of 0.5 mM DMSO stocks. Each master plate contained serial dilution of 8 compounds, including the control compound E7820. […] of 100× compound stock was added to each well of the assay plate to give final concentrations of […]. Each concentration was tested in triplicate. After 3 days, cell viability was determined using CellTiter-Glo Luminescent Cell Viability Assay Reagent following the manufacturer's recommended protocol. Briefly, […] of CellTiter-Glo reagent was added to each well of the assay plate and the contents were mixed for 3 minutes at 600 rpm on a shaker (Thermomixer R). The plate was immediately placed in a plate reader (Synergy 2) and the luminescence signal (0.5 second per well integration time) was determined. IC50 values were calculated using Dotmatics software.

T1 sequence (Q66K64 whole entry, the tested form may be a part): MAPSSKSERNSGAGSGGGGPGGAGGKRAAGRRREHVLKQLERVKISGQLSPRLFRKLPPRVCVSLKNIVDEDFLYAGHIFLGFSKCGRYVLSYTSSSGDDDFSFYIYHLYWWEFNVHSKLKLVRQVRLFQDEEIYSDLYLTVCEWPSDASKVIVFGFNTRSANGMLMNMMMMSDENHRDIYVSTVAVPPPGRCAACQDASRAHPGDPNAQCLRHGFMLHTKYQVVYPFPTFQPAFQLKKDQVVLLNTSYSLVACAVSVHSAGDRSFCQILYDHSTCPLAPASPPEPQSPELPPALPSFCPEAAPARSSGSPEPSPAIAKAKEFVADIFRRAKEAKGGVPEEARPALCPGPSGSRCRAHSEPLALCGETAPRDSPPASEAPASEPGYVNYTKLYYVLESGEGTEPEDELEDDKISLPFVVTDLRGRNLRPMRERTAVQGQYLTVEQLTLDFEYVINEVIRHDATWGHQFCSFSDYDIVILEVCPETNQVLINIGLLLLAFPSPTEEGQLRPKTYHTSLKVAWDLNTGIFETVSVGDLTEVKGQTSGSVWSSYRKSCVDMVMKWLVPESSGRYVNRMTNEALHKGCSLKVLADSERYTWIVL
T1 sequence (Q14498 150-331): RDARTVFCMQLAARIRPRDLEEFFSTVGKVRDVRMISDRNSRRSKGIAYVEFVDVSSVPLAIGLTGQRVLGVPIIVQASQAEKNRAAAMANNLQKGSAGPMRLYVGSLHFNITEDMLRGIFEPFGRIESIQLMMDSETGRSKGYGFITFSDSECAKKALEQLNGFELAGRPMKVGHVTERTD
T1 sequence (Q16531 with tags, fused parts or gaps DEL396-708 partner): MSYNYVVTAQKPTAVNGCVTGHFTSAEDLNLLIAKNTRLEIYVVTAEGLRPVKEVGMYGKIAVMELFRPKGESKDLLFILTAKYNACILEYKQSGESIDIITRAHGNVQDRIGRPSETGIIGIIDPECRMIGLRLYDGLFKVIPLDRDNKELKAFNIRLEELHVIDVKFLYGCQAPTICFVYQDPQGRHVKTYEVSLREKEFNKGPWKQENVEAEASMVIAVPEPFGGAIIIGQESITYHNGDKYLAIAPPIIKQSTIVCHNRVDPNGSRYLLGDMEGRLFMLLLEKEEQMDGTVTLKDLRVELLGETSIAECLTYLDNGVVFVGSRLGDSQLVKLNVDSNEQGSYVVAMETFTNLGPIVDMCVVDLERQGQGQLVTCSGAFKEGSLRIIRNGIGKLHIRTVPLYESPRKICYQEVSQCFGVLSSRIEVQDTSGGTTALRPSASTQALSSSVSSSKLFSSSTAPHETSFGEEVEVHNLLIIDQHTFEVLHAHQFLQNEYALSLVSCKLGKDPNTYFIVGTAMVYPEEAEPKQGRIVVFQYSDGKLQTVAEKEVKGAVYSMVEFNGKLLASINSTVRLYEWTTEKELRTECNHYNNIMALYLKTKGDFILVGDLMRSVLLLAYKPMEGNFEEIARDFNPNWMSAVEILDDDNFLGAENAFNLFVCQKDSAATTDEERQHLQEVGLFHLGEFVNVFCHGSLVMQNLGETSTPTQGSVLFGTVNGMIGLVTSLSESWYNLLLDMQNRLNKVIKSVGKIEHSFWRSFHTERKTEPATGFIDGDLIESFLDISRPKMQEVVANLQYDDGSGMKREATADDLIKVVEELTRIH

Turning to `O=S(=O)(Nc1cccc2c(Cl)c[nH]c12)c1cnn(C2CCOCC2)c1` [Compound 20, N-(3-chloro-1H-indol-7-yl)-1-tetrahydropyran-4-yl-pyrazole-4-sulfonamide], in assay [1], the IC50 lay in the range of 250 to 1000 nM. Moreover, the concentration giving a half-maximal response (EC50) in assay [2] is more than 1000 nM.

On to `O=S(=O)(Nc1cccc2c(Cl)c[nH]c12)c1cnn(-c2ccc(F)cn2)c1` [Compound 21, N-(3-chloro-1H-indol-7-yl)-1-(5-fluoro-2-pyridyl)pyrazole-4-sulfonamide], for which the half-inhibitory concentration (IC50) in assay [1] fell in the range of 250 to 1000 nM. The concentration giving a half-maximal response (EC50) in assay [2] is more than 1000 nM.

As to `N#Cc1cc(C(F)(F)F)ccc1-n1cc(S(=O)(=O)Nc2cccc3c(Cl)c[nH]c23)cn1` [Compound 22, N-(3-chloro-1H-indol-7-yl)-1-[2-cyano-4-(trifluoromethyl)phenyl]pyrazole-4-sulfonamide], the IC50 in assay [1] is more than 1000 nM. For the same compound, the EC50 in assay [2] is more than 1000 nM.

Consider `COCCOCCn1cc(S(=O)(=O)Nc2cccc3c(Cl)c[nH]c23)cn1` [Compound 23, N-(3-chloro-1H-indol-7-yl)-1-[2-(2-methoxyethoxy)ethyl]pyrazole-4-sulfonamide], for which the IC50 in assay [1] is less than 250 nM. For the same compound, the EC50 in assay [2] is more than 1000 nM.

Consider `COCCOCCOCCn1cc(S(=O)(=O)Nc2cccc3c(Cl)c[nH]c23)cn1` [Compound 24, N-(3-chloro-1H-indol-7-yl)-1-[2-[2-(2-methoxyethoxy)ethoxy)ethyl]pyrazole-4-sulfonamide], for which the IC50 in assay [1] lay in the range of 250 to 1000 nM. The EC50 in assay [2] is more than 1000 nM.

For `Cc1ccc(NS(=O)(=O)c2cnn(CCO)c2)c2[nH]cc(C#N)c12` [Compound 25, N-(3-cyano-4-methyl-1H-indol-7-yl)-1-(2-hydroxyethyl)-1H-pyrazole-4-sulfonamide], in assay [1], the IC50 is less than 250 nM. In assay [2], the EC50 was in the range of 250 to 1000 nM.

`CC(C)(C)OC(=O)N1CCC(n2cc(S(=O)(=O)Nc3cccc4c(Cl)c[nH]c34)cn2)CC1` [Compound 26, tert-butyl 4-[4-[(3-chloro-1H-indol-7-yl)sulfamoyl]pyrazol-1-yl]piperidine-1-carboxylate]: in assay [1], the half-maximal inhibitory concentration (IC50) was less than 250 nM. In addition, in assay [2], the EC50 was more than 1000 nM.

As for `CC(=O)N1CC(n2cc(S(=O)(=O)Nc3cccc4c(Cl)c[nH]c34)cn2)C1` [Compound 27, 1-(1-acetylazetidin-3-yl)-N-(3-chloro-1H-indol-7-yl)pyrazole-4-sulfonamide], the concentration for half-maximal inhibition (IC50) in assay [1] is less than 250 nM. In assay [2], the EC50 is more than 1000 nM.

With `CC1(Cn2cc(S(=O)(=O)Nc3cccc4c(Cl)c[nH]c34)cn2)COC1` [Compound 28, N-(3-chloro-1H-indol-7-yl)-1-[(3-methyloxetan-3-yl)methyl]pyrazole-4-sulfonamide], the IC50 in assay [1] was less than 250 nM. In assay [2], the EC50 lay within 250 to 1000 nM.

Regarding `Cc1ccc(NS(=O)(=O)c2cnn(C3CCOC3)c2)c2[nH]cc(C#N)c12` (stereo not drawn) [Compound 29, N-(3-cyano-4-methyl-1H-indol-7-yl)-1-tetrahydrofuran-3-yl-pyrazole-4-sulfonamide], in assay [1], the half-inhibitory concentration (IC50) was less than 250 nM. Also, the EC50 in assay [2] is 250 to 1000 nM.

Consider `O=S(=O)(Nc1cccc2c(Cl)c[nH]c12)c1cnn(-c2ccc(C(F)(F)F)cn2)c1` [Compound 30, N-(3-chloro-1H-indol-7-yl)-1-[5-(trifluoromethyl)-2-pyridyl]pyrazole-4-sulfonamide], for which, in assay [1], the IC50 was more than 1000 nM. Further, the 50% effective concentration (EC50) in assay [2] was more than 1000 nM.

As for `Cc1ccc(NS(=O)(=O)c2cnn(-c3ccc(C(F)(F)F)cn3)c2)c2[nH]cc(C#N)c12` [Compound 31, N-(3-cyano-4-methyl-1H-indol-7-yl)-1-[5-(trifluoromethyl)-2-pyridyl]pyrazole-4-sulfonamide], in assay [1], the half-maximal inhibitory concentration (IC50) was less than 250 nM. Besides, the EC50 in assay [2] is more than 1000 nM.

With `COC(Cn1cc(S(=O)(=O)Nc2cccc3c(Cl)c[nH]c23)cn1)OC` [Compound 32, N-(3-chloro-1H-indol-7-yl)-1-(2,2-dimethoxyethyl)pyrazole-4-sulfonamide], the IC50 in assay [1] was less than 250 nM. Further, the EC50 in assay [2] fell in the range of 250 to 1000 nM.

In the case of `CC(C)(C)OC(=O)NCCn1cc(S(=O)(=O)Nc2cccc3c(Cl)c[nH]c23)cn1` [Compound 33, tert-butyl N-[2-[4-[(3-chloro-1H-indol-7-yl)sulfamoyl]pyrazol-1-yl]ethyl]carbamate], the half-inhibitory concentration (IC50) in assay [1] lay within 250 to 1000 nM. In assay [2], the EC50 is more than 1000 nM.

Take `NCCn1cc(S(=O)(=O)Nc2cccc3c(Cl)c[nH]c23)cn1` [Compound 34, 1-(2-aminoethyl)-N-(3-chloro-1H-indol-7-yl)pyrazole-4-sulfonamide]: the IC50 in assay [1] is less than 250 nM. The half-maximal effective concentration (EC50) in assay [2] is more than 1000 nM.

`O=S(=O)(Nc1cccc2c(Cl)c[nH]c12)c1cnn(CCF)c1` [Compound 35, N-(3-chloro-1H-indol-7-yl)-1-(2-fluoroethyl)pyrazole-4-sulfonamide]: the IC50 in assay [1] is less than 250 nM. Besides, the 50% effective concentration (EC50) in assay [2] lay in the range of 250 to 1000 nM.

Consider `Cc1ccc(NS(=O)(=O)c2cnn(CCF)c2)c2[nH]cc(C#N)c12` [Compound 36, N-(3-cyano-4-methyl-1H-indol-7-yl)-1-(2-fluoroethyl)pyrazole-4-sulfonamide], for which the half-inhibitory concentration (IC50) in assay [1] was less than 250 nM. In assay [2], the EC50 is less than 250 nM.

In the case of `O=S(=O)(Nc1cccc2c(Cl)c[nH]c12)c1cnn(-c2ccccc2)c1` [Compound 37, N-(3-chloro-1H-indol-7-yl)-1-phenyl-pyrazole-4-sulfonamide], in assay [1], the IC50 was less than 250 nM. For the same compound, the concentration giving a half-maximal response (EC50) in assay [2] is more than 1000 nM.

`CC(C)n1cc(S(=O)(=O)Nc2cccc3c(Cl)c[nH]c23)cn1` [Compound 39, N-(3-chloro-1H-indol-7-yl)-1-isopropyl-pyrazole-4-sulfonamide]: the IC50 in assay [1] is less than 250 nM. Further, the EC50 in assay [2] lay within 250 to 1000 nM.

Take `O=S(=O)(Nc1cccc2c(Cl)c[nH]c12)c1cnn(C2COC2)c1` [Compound 40, N-(3-chloro-1H-indol-7-yl)-1-(oxetan-3-yl)pyrazole-4-sulfonamide]: in assay [1], the IC50 is less than 250 nM. Also, in assay [2], the EC50 is 250 to 1000 nM.

As for `O=S(=O)(Nc1cccc2c(Cl)c[nH]c12)c1cnn(C2CCNCC2)c1` [Compound 41, N-(3-chloro-1H-indol-7-yl)-1-(4-piperidyl)pyrazole-4-sulfonamide], in assay [1], the 50% inhibitory concentration (IC50) was in the range of 250 to 1000 nM. Moreover, in assay [2], the 50% effective concentration (EC50) is more than 1000 nM.

Turning to `O=S(=O)(Nc1cccc2c(Cl)c[nH]c12)c1cnn(CC2CNC2)c1` [Compound 43, 1-(azetidin-3-ylmethyl)-N-(3-chloro-1H-indol-7-yl)pyrazole-4-sulfonamide], the IC50 in assay [1] was less than 250 nM. Further, the EC50 in assay [2] was more than 1000 nM.

Turning to `CC1(Cn2cc(S(=O)(=O)Nc3cccc4c(Cl)c[nH]c34)cn2)CSC1` [Compound 44, N-(3-chloro-1H-indol-7-yl)-1-[(3-methylthietan-3-yl)methyl]pyrazole-4-sulfonamide], the half-inhibitory concentration (IC50) in assay [1] is less than 250 nM. Besides, in assay [2], the EC50 was more than 1000 nM.

For `CC1(Cn2cc(S(=O)(=O)Nc3cccc4c(Cl)c[nH]c34)cn2)CS(=O)(=O)C1` [Compound 45, N-(3-chloro-1H-indol-7-yl)-1-[(3-methyl-1,1-dioxo-thietan-3-yl)methyl]pyrazole-4-sulfonamide], the 50% inhibitory concentration (IC50) in assay [1] is less than 250 nM. In assay [2], the 50% effective concentration (EC50) lay within 250 to 1000 nM.

Consider `Cn1cc(S(=O)(=O)Nc2cccc3c(C#N)c[nH]c23)cn1` [Compound 46, N-(3-cyano-1H-indol-7-yl)-1-methyl-pyrazole-4-sulfonamide], for which the IC50 in assay [1] is less than 250 nM. Further, the EC50 in assay [2] fell in the range of 250 to 1000 nM.

As to `O=S(=O)(Nc1cccc2c(Cl)c[nH]c12)c1cnn(C2CCC2)c1` [Compound 47, N-(3-chloro-1H-indol-7-yl)-1-cyclobutyl-pyrazole-4-sulfonamide], the IC50 in assay [1] was less than 250 nM. In assay [2], the EC50 lay within 250 to 1000 nM.

Take `COCCn1cc(S(=O)(=O)Nc2cccc3c(Cl)c[nH]c23)cn1` [Compound 49, N-(3-chloro-1H-indol-7-yl)-1-(2-methoxyethyl)pyrazole-4-sulfonamide]: the concentration for half-maximal inhibition (IC50) in assay [1] was less than 250 nM. The EC50 in assay [2] was in the range of 250 to 1000 nM.
